Laboratory results: patent US20060069132A1, “Azolecarboxamide herbicides” (priority 2004, published 2006)

Tests used:
[1] = test system: Surinam grass; test: Test C pre-/postemergence herbicide test; type: in vivo, Urochloa decumbens; conditions: for Surinam Grass plant response rating: 500 g ai/ha
In short: (§1)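 Seeds were planted and sprayed preemergence with test chemicals in a non-phytotoxic solvent mixture containing surfactant; postemergence treatments went onto plants 2 to 18 cm tall (1- to 4-leaf stage). After 12 to 14 days in a greenhouse, injury was rated visually against untreated controls on a 0–100 scale.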

[2] = test system: ducksalad; test: Test B flooded paddy test; type: in vivo, Heteranthera limosa; conditions: 1000 g ai/ha, visual rating, scale 0 to 100 (0 no effect, 100 complete control), 13 to 15 days
In short: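 Greenhouse test; postemergence application to plants at 1–4 leaves (2–18 cm); paddy species at 2 leaves; evaluated visually vs controls at 13–15 days; scale 0–100 (100 = complete control).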

[3] = test system: barnyardgrass; test: Test B pre-/postemergence herbicide test; type: in vivo, Echinochloa crus-galli
In short: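 Greenhouse pot assay with simultaneous preemergence (treated seed) and postemergence (2–18 cm seedlings) applications of surfactant-containing, non-phytotoxic solvent formulations. Response scored visually 13–15 days later on a 0–100 scale, 100 meaning complete control.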

[4] = test system: yellow nutsedge; test: Test C pre-/postemergence herbicide test; type: in vivo, Cyperus esculentus; conditions: for Nutsedge, Yellow plant response rating: 500 g ai/ha
In short: as §1

[5] = test system: giant foxtail; test: Test A pre-/postemergence herbicide test; type: in vivo, Setaria faberi
In short: (§2)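 Seeds sown in sandy loam received a preemergence directed soil spray of compound in non-phytotoxic solvent with surfactant; postemergence plants (2–10 cm, one- to two-leaf stage) were sprayed to runoff at the same time. After ~10 days in greenhouse, injury was rated visually versus untreated controls (0 = no effect, 100 = complete control).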

[6] = test system: redroot pigweed; test: Test A pre-/postemergence herbicide test; type: in vivo, Amaranthus retroflexus
In short: as §2

[7] = test system: large crabgrass; test: Test C pre-/postemergence herbicide test; type: in vivo, Digitaria sanguinalis; conditions: for Crabgrass, Large plant response rating: 500 g ai/ha
In short: as §1

[8] = test system: lambsquarters; test: Test C pre-/postemergence herbicide test; type: in vivo, Chenopodium album; conditions: for Lambsquarters plant response rating: 500 g ai/ha
In short: as §1

[9] = test system: common ragweed; test: Test C pre-/postemergence herbicide test; type: in vivo, Ambrosia elatior; set-up: key to Plant response rating, Ragweed: 0 = no effect, 100 = complete control; conditions: for Ragweed plant response rating: 500 g ai/ha
In short: as §1

[10] = 31 g ai/ha, preemergence, scale 0 to 100
[11] = 125 g ai/ha, scale 0 (no effect) to 100 (complete control), visual, 12 to 14 days, preemergence
[12] = 250 g ai/ha, scale 0 to 100 (0 no effect, 100 complete control), visual, 12 to 14 days, preemergence
[13] = Postemergence, 250 g ai/ha, scale 0 to 100, 0 no effect, 100 complete control
[14] = postemergence, 125 g ai/ha, scale 0 to 100
[15] = postemergence, 62 g ai/ha, scale 0 to 100
[16] = Postemergence, 500 g ai/ha, visual rating after 13 to 15 days, scale 0 (no effect) to 100 (complete control)
[17] = postemergence, 125 g ai/ha, visual rating, scale 0 (no effect) to 100 (complete control)
[18] = preemergence, 125 g ai/ha, 0 to 100 scale, 0 is no effect, 100 is complete control
[19] = Postemergence, 500 g ai/ha, 0 to 100 scale, 0 no effect, 100 complete control
[20] = Postemergence, 2000 g ai/ha, 0 to 100 scale, 0 no effect, 100 complete control
[21] = Preemergence, 500 g ai/ha, visual rating, 0 to 100 scale (0 no effect, 100 complete control)
[22] = Preemergence, 2000 g ai/ha, 0 to 100 scale, 0 no effect, 100 complete control
[23] = 500 g ai/ha, visual rating 0-100, 0 no effect, 100 complete control, preemergence
[24] = Preemergence, 2000 g ai/ha, visual rating, 0 to 100 scale (0 no effect, 100 complete control)
[25] = Preemergence, scale 0 to 100, 0 no effect, 100 complete control
[26] = Postemergence, 250 g ai/ha, 0 to 100 scale, 0 no effect, 100 complete control
[27] = Postemergence, 1000 g ai/ha, 0 to 100 scale, 0 no effect, 100 complete control
[28] = Preemergence, 1000 g ai/ha, visual rating, 0 to 100 scale (0 no effect, 100 complete control)
[29] = preemergence, 250 g ai/ha, visual injury, 0 to 100 scale (0 no effect, 100 complete control)

SMILES: CCn1nc(C(C)(C)C)cc1C(=O)Nc1ccc(F)c(C(=O)NCCF)c1 [Compound 60]
- Plant response rating, Surinam Grass [1, 10]: 0
- Plant response rating (0 = no effect, 100 = complete control), Surinam Grass ([1]; 62 g ai/ha, preemergence): 0
- Plant response rating, Surinam Grass [1, 11]: 0
- Plant response rating, Surinam Grass [1, 12]: 50
- Plant response rating, Surinam Grass [1, 13]: 5
- Plant response rating, Surinam Grass [1, 14]: 5
- Plant response rating, Surinam Grass [1, 15]: 5
- Ducksalad plant response rating [2]: 70
- Plant response rating, Barnyardgrass [3, 16]: 10
- Barnyardgrass plant response rating ([3]; Preemergence, 500 g ai/ha, scale 0 to 100): 100
- Barnyardgrass plant response rating [3, 17]: 10
- Plant response rating, Barnyardgrass [3, 18]: 50
- Plant response rating, Nutsedge, Yellow [4, 10]: 0
- Plant response rating (0 = no effect, 100 = complete control), Nutsedge, Yellow ([4]; 62 g ai/ha, preemergence): 0
- Plant response rating, Nutsedge, Yellow [4, 11]: 0
- Plant response rating, Nutsedge, Yellow [4, 12]: 5
- Plant response rating, Nutsedge, Yellow [4, 13]: 0
- Plant response rating, Nutsedge, Yellow [4, 14]: 0
- Plant response rating, Nutsedge, Yellow [4, 15]: 0
- Plant response rating, Foxtail, Giant [5, 19]: 30
- Plant response rating, Foxtail, Giant [5, 20]: 60
- Foxtail, Giant plant response rating [5, 21]: 55
- Foxtail, Giant plant response rating [5, 22]: 90
- Plant response rating, Pigweed [6, 19]: 40
- Plant response rating, Pigweed [6, 20]: 95
- Pigweed plant response rating [6, 21]: 95
- Pigweed plant response rating [6, 22]: 100
- Plant response rating, Crabgrass, Large [7, 10]: 80
- Plant response rating (0 = no effect, 100 = complete control), Crabgrass, Large ([7]; 62 g ai/ha, preemergence): 90
- Plant response rating, Crabgrass, Large [7, 11]: 90
- Plant response rating, Crabgrass, Large [7, 12]: 95
- Plant response rating, Crabgrass, Large [7, 13]: 5
- Plant response rating, Crabgrass, Large [7, 14]: 0
- Plant response rating, Crabgrass, Large [7, 15]: 0
- Plant response rating, Lambsquarters [8, 10]: 90
- Plant response rating (0 = no effect, 100 = complete control), Lambsquarters ([8]; 62 g ai/ha, preemergence): 100
- Plant response rating, Lambsquarters [8, 11]: 100
- Plant response rating, Lambsquarters [8, 12]: 100
- Plant response rating, Lambsquarters [8, 13]: 70
- Plant response rating, Lambsquarters [8, 14]: 30
- Plant response rating, Lambsquarters [8, 15]: 10
- Plant response rating, Ragweed [9, 10]: 0
- Plant response rating (0 = no effect, 100 = complete control), Ragweed ([9]; 62 g ai/ha, preemergence): 10
- Plant response rating, Ragweed [9, 11]: 80
- Plant response rating, Ragweed [9, 12]: 95
- Plant response rating, Ragweed [9, 13]: 5
- Plant response rating, Ragweed [9, 14]: 5
- Plant response rating, Ragweed [9, 15]: 0

SMILES: CC(=NO)c1cccc(NC(=O)c2cc(C(C)(C)C)nn2CC(F)(F)F)c1 [Compound 112]
- Surinam Grass plant response rating ([1]; Postemergence, scale 0 to 100): 60
- Plant response rating, Surinam Grass [1, 13]: 40
- Plant response rating, Surinam Grass [1, 14]: 40
- Plant response rating, Surinam Grass [1, 15]: 20
- Ducksalad plant response rating [2]: 80
- Plant response rating, Barnyardgrass [3, 23]: 70
- Plant response rating, Barnyardgrass [3, 16]: 70
- Barnyardgrass plant response rating [3, 17]: 50
- Plant response rating, Barnyardgrass [3, 18]: 50
- Nutsedge, Yellow plant response rating ([4]; Postemergence, scale 0 to 100): 20
- Plant response rating, Nutsedge, Yellow [4, 13]: 20
- Plant response rating, Nutsedge, Yellow [4, 14]: 0
- Plant response rating, Nutsedge, Yellow [4, 15]: 0
- Foxtail, Giant plant response rating [5, 19]: 20
- Plant response rating, Foxtail, Giant [5, 20]: 35
- Foxtail, Giant plant response rating [5, 21]: 25
- Foxtail, Giant plant response rating [5, 24]: 50
- Pigweed plant response rating [6, 19]: 40
- Plant response rating, Pigweed [6, 20]: 60
- Pigweed plant response rating [6, 21]: 65
- Pigweed plant response rating [6, 24]: 90
- Crabgrass, Large plant response rating ([7]; Postemergence, scale 0 to 100): 30
- Plant response rating, Crabgrass, Large [7, 13]: 30
- Plant response rating, Crabgrass, Large [7, 14]: 10
- Plant response rating, Crabgrass, Large [7, 15]: 0
- Lambsquarters plant response rating ([8]; Postemergence, scale 0 to 100): 100
- Plant response rating, Lambsquarters [8, 13]: 100
- Plant response rating, Lambsquarters [8, 14]: 20
- Plant response rating, Lambsquarters [8, 15]: 20
- Ragweed plant response rating ([9]; Postemergence, scale 0 to 100): 70
- Plant response rating, Ragweed [9, 13]: 70
- Plant response rating, Ragweed [9, 14]: 0
- Plant response rating, Ragweed [9, 15]: 0

SMILES: CCn1nc(C(C)(C)C)cc1C(=O)Nc1cccc(S(=O)(=O)C(F)(F)F)c1 [Compound 134]
- Plant response rating (0 = no effect, 100 = complete control), Surinam Grass ([1]; 62 g ai/ha, preemergence): 0
- Plant response rating, Surinam Grass [1, 11]: 15
- Surinam Grass plant response rating [1, 25]: 75
- Ducksalad plant response rating [2]: 90
- Plant response rating, Barnyardgrass [3, 23]: 80
- Barnyardgrass plant response rating [3, 17]: 20
- Barnyardgrass plant response rating ([3]; postemergence, 500 g ai/ha, visual rating, scale 0 (no effect) to 100 (complete control)): 40
- Plant response rating, Barnyardgrass [3, 18]: 50
- Plant response rating (0 = no effect, 100 = complete control), Nutsedge, Yellow ([4]; 62 g ai/ha, preemergence): 0
- Plant response rating, Nutsedge, Yellow [4, 11]: 0
- Nutsedge, Yellow plant response rating [4, 25]: 0
- Foxtail, Giant plant response rating [5, 26]: 15
- Plant response rating, Foxtail, Giant [5, 27]: 35
- Foxtail, Giant plant response rating [5, 28]: 45
- Foxtail, Giant plant response rating [5, 29]: 20
- Pigweed plant response rating [6, 26]: 85
- Plant response rating, Pigweed [6, 27]: 100
- Pigweed plant response rating [6, 28]: 100
- Pigweed plant response rating [6, 29]: 35
- Plant response rating (0 = no effect, 100 = complete control), Crabgrass, Large ([7]; 62 g ai/ha, preemergence): 65
- Plant response rating, Crabgrass, Large [7, 11]: 95
- Plant response rating, Crabgrass, Large [7, 12]: 95
- Crabgrass, Large plant response rating [7, 25]: 100
- Plant response rating (0 = no effect, 100 = complete control), Lambsquarters ([8]; 62 g ai/ha, preemergence): 100
- Plant response rating, Lambsquarters [8, 11]: 100
- Lambsquarters plant response rating [8, 25]: 100
- Plant response rating (0 = no effect, 100 = complete control), Ragweed ([9]; 62 g ai/ha, preemergence): 0
- Plant response rating, Ragweed [9, 11]: 25
- Ragweed plant response rating [9, 25]: 100
